Measurements reported in ChEMBL document CHEMBL3301361, “Experimental in vitro DMPK and physicochemical data on a set of publicly disclosed compounds”.
In brackets after ≈: the same amount, converted by molar mass.

Experiments:
[1] = physchem; conditions: octan-1-ol/water, pH 7.4
[2] = physchem; conditions: pH 7.4 buffer

SMILES	logD [1]	solubility thermodynamic [2] [µM]
Oc1ccc(-c2ccc(C3(O)CN4CCC3CC4)cc2)cc1 (stereo not drawn)	0.95	436 (≈ 129 µg/mL)
CNC(=O)c1ccc(N2C(=S)N(c3ccc(C#N)c(C(F)(F)F)c3)C(=O)C23CCC3)cc1F	3.3	1.6 (≈ 0.762 µg/mL)
O=c1cc(CN2CCOCC2)occ1OCCCCCSc1ccnc2cc(C(F)(F)F)ccc12	–	77.6 (≈ 39.5 µg/mL)
N#Cc1nc(N2CCOCC2)nc(N2CCOCC2)n1	1.51	77.6 (≈ 21.4 µg/mL)
CC(=O)Nc1nc(-c2cccs2)cs1	2.77	100 (≈ 22.4 µg/mL)
CC(=O)Nc1nc(-c2ccccc2)ns1	2.8	182 (≈ 39.9 µg/mL)
Nc1nccc(/C=C/c2ccc(Cl)cc2)n1	3.5	8.7 (≈ 2.02 µg/mL)
CSc1ccc(C(=O)C(C)(C)N2CCOCC2)cc1	3.49	52.5 (≈ 14.7 µg/mL)
Cc1cc(=O)oc2cc3c(cc12)CCCN3	2.7	13.8 (≈ 2.97 µg/mL)
O=C(c1ccccc1)C1CCN(C(=O)c2cccs2)CC1	–	79.4 (≈ 23.8 µg/mL)
CCN(CC)c1ncnc2c1ncn2Cc1c(Cl)cccc1Cl	1.25	2.3 (≈ 0.806 µg/mL)
CCn1c2ccccc2c2cc(NC(C)=O)ccc21	3.5	5.6 (≈ 1.41 µg/mL)
COc1ccc(-c2cnn(C3CCS(=O)(=O)C3)c2N)cc1 (stereo not drawn)	–	81.3 (≈ 25 µg/mL)
Cc1ccnc2nc(C(=O)Nc3nccs3)nn12	0.31	339 (≈ 88.2 µg/mL)
O=C(NCc1ccncc1)c1ccc(Oc2ccc(C#C[C@]3(O)CN4CCC3CC4)cc2)cc1	2.42	302 (≈ 137 µg/mL)
Cc1ccn2c(NC(=O)c3ccccc3)c(-c3cccs3)nc2c1	2.87	1.1 (≈ 0.367 µg/mL)
O=C(NCc1ccncc1)c1ccc(Oc2ccc(C#CC3(O)CN4CCC3CC4)cc2)cc1 (stereo not drawn)	2.48	269 (≈ 122 µg/mL)
O=C(NCc1ccncc1)c1ccc(Oc2ccc(C#C[C@@]3(O)CN4CCC3CC4)cc2)cc1	2.31	107 (≈ 48.6 µg/mL)
CS(=O)(=O)c1ccc(Oc2ccc(C#C[C@]3(O)CN4CCC3CC4)cc2)cc1	1.51	457 (≈ 182 µg/mL)
O=C(NC1CCCS(=O)(=O)C1)c1ccc(Oc2ccc(C#C[C@]3(O)CN4CCC3CC4)cc2)cc1 (stereo partly drawn)	1.4	162 (≈ 80.2 µg/mL)
CN(C(=O)Cc1ccc(S(C)(=O)=O)cc1F)C1CCN(Cc2ccc(C(F)(F)F)cc2)CC1	–	74.1 (≈ 36.1 µg/mL)
CO[C@@H]1CN(Cc2ccc(C(F)(F)F)cc2)CC[C@@H]1N(C)C(=O)Cc1ccc(-n2cnnn2)cc1	–	75.9 (≈ 37.1 µg/mL)
COc1ccc(-c2csc(NC(=O)c3c(C)noc3C)n2)cc1OC	3.16	2 (≈ 0.719 µg/mL)
CCCSc1ncccc1C(=O)NC1CCCCC1	–	81.3 (≈ 22.6 µg/mL)
CC(C)(C)[C@@H](C#N)NC(=O)[C@@H]1CCCC[C@H]1C(=O)N1CCc2[nH]c3ccc(F)cc3c2C1	–	74.1 (≈ 32.5 µg/mL)
N#CC1(NC(=O)[C@@H]2CCCC[C@H]2C(=O)N2CCc3[nH]c4ccc(C(F)(F)F)cc4c3C2)CC1	–	74.1 (≈ 34 µg/mL)

SMILES	logD [1]	solubility thermodynamic [2] [µM]
CC12CCC(=O)C=C1CCC1C2CCC2(C)C(O)CCC12 (stereo not drawn)	3.3	40.7 (≈ 11.7 µg/mL)
CC(=O)Nc1ccc(-c2ccccc2)cc1	–	79.4 (≈ 16.8 µg/mL)
N=C(N)Nc1nc(-c2cccc(O)c2)cs1	–	79.4 (≈ 18.6 µg/mL)
Oc1cc(-c2ccccc2)nc2ccnn12	1.3	813 (≈ 172 µg/mL)
COc1cc2ncnc(Nc3cccc(Cl)c3F)c2cc1CN1CC[C@H](C(N)=O)C1	–	77.6 (≈ 33.4 µg/mL)
COc1ccc(OC)c(NC(=O)Cc2cccs2)c1	–	74.1 (≈ 20.6 µg/mL)
Cc1cc(C)cc(-c2[nH]c3sc(C(C)(C)C(=O)N4C5CCC4CC5)cc3c2C(=O)CN2CCC(C(=O)N3CCOCC3)CC2)c1	–	72.4 (≈ 45.7 µg/mL)
Cc1c(Cl)cccc1S(=O)(=O)Nc1nc(CC(=O)N2CCN(C)CC2)cs1	0.57	1100 (≈ 470 µg/mL)
CC1(C)Oc2ncnc(N)c2N=C1c1ccc(C23CC4CC(CC(CC(=O)O)(C4)C2)C3)cc1	–	79.4 (≈ 35.5 µg/mL)
Cc1nc(-c2ccccc2)c(-c2ccc(CN3CCC(n4c(=O)[nH]c5ccccc54)CC3)cc2)[nH]c1=O	3.9	27.5 (≈ 13.5 µg/mL)
Cc1c(NC(=O)OC[C@@H]2COCCN2)cn2ncnc(Nc3ccc4c(cnn4Cc4cccc(F)c4)c3)c12 [AC-480]	–	1.7 (≈ 0.902 µg/mL)
CCN1CCN(Cc2ccc(-c3cc4c(N[C@H](C)c5ccccc5)ncnc4[nH]3)cc2)CC1 [AEE-788]	–	58.9 (≈ 26 µg/mL)
Cc1cccc(-c2ccc3c(c2)c(C(=O)C(=O)O)cn3Cc2ccc(C(C)(C)C)cc2)c1 [ALEPLASININ]	–	363 (≈ 155 µg/mL)
COc1cc2ncnc(Nc3ccc(NC(=O)c4ccccc4)cc3)c2cc1OC [ANILINOQUINAZOLINE1]	–	10 (≈ 4 µg/mL)
COc1ccc(Cl)c(Nc2ncnc3cc(OCC4CCN(C)CC4)c(OC)cc23)c1 [AZM-475271]	–	324 (≈ 143 µg/mL)
Cc1c(-c2ccc(O)cc2)n(Cc2ccc(OCCN3CCCCCC3)cc2)c2ccc(O)cc12 [BAZEDOXIFENE]	–	5.2 (≈ 2.45 µg/mL)
c1ccc(-c2ccc(C(c3ccccc3)n3ccnc3)cc2)cc1 (stereo not drawn) [BIFONAZOLE]	–	1.1 (≈ 0.341 µg/mL)
COc1ccc(/C=C\c2cc(OC)c(OC)c(OC)c2)cc1O [COMBRETASTATIN A4]	–	144 (≈ 45.7 µg/mL)
COCC(=O)NC/C=C/c1ccc2ncnc(Nc3ccc(Oc4ccc(C)nc4)c(C)c3)c2c1 [CP-724714]	–	1.1 (≈ 0.516 µg/mL)
CN(C)C(=O)Nc1ccc(Cl)c(Cl)c1 [DCMU]	–	132 (≈ 30.7 µg/mL)
CCC[C@@H]1O[C@@H]2C[C@H]3[C@@H]4CCC5=CC(=O)C=C[C@]5(C)[C@H]4[C@@H](O)C[C@]3(C)[C@]2(C(=O)CO)O1 [DEXBUDESONIDE]	–	19.5 (≈ 8.4 µg/mL)
CC/C(=C(/CC)c1ccc(O)cc1)c1ccc(O)cc1 [DIETHYLSTILBESTROL]	–	25.1 (≈ 6.74 µg/mL)
CN1CCN(c2ccc3nc(-c4c(N)c5c(F)cccc5[nH]c4=O)[nH]c3c2)CC1 [DOVITINIB]	–	8.3 (≈ 3.26 µg/mL)
O=C1NCNC1(c1ccccc1)c1ccccc1 [DOXENITOIN]	–	316 (≈ 75.3 µg/mL)
CC1(C)C=Cc2c(O)nc3ccccc3c2O1 [FLINDERSINE]	–	67.6 (≈ 15.4 µg/mL)
COc1ccc2[nH]c(=O)c3c(c2c1)OC(C)(C)C=C3 [HAPLAMINE]	–	87.1 (≈ 22.4 µg/mL)

SMILES	logD [1]	solubility thermodynamic [2] [µM]
NC(=O)c1ccc(I)c([N+](=O)[O-])c1 [INIPARIB]	–	417 (≈ 122 µg/mL)
CCCNC(=O)Nc1ccc(Oc2ncnc3cc(OC)c(OC)cc23)cc1Cl [KRN-633]	–	0.2 (≈ 0.0834 µg/mL)
O=c1cc(-c2cccc3c2Sc2ccccc2S3)oc(N2CCOCC2)c1 [KU-55933]	–	7.1 (≈ 2.81 µg/mL)
CC1(C)CNc2cc(NC(=O)c3cccnc3NCc3ccncc3)ccc21 [MOTESANIB]	–	44.7 (≈ 16.7 µg/mL)
COc1c(C)c2c(c(O)c1C/C=C(\C)CCC(=O)NO)C(=O)OC2 [MYCOPHENOLIC HYDROXAMIC ACID]	–	1000 (≈ 335 µg/mL)
CNC(=O)c1c(-c2ccc(F)cc2)oc2cc(N(CCO)S(C)(=O)=O)c(C3CC3)cc12 [NESBUVIR]	–	60.3 (≈ 26.9 µg/mL)
Cc1cn(-c2cc(NC(=O)c3ccc(C)c(Nc4nccc(-c5cccnc5)n4)c3)cc(C(F)(F)F)c2)cn1 [NILOTINIB]	–	1.1 (≈ 0.582 µg/mL)
COC(=O)C1=C(C#N)NC(C)=C(C(=O)OC(C)C)C1c1cccc([N+](=O)[O-])c1 (stereo not drawn) [NILVADIPINE]	–	2.1 (≈ 0.809 µg/mL)
COc1ccc(/C=C\c2cc(OC)c(OC)c(OC)c2)cc1NC(=O)[C@@H](N)CO [OMBRABULIN]	–	1510 (≈ 609 µg/mL)
CCOc1cc2ncc(C#N)c(Nc3ccc(F)c(Cl)c3)c2cc1NC(=O)/C=C/CN(C)C [PELITINIB]	–	1.5 (≈ 0.702 µg/mL)
c1ccc2c(c1)Nc1ccccc1S2 [PHENOTHIAZINE]	–	2.9 (≈ 0.578 µg/mL)
C[C@@H](Nc1ncnc2[nH]c(-c3ccc(O)cc3)cc12)c1ccccc1 [PKI-166]	–	28.8 (≈ 9.52 µg/mL)
CC1(C)SCCN(S(=O)(=O)c2ccc(Oc3ccncc3)cc2)[C@H]1C(=O)NO [PRINOMASTAT]	–	69.2 (≈ 29.3 µg/mL)
COc1cc(NS(=O)(=O)c2ccc(N)cc2)nc(OC)n1 [SULFADIMETHOXINE]	–	1290 (≈ 400 µg/mL)
CNC(=O)c1cc(COc2nnc(Nc3ccc(Cl)cc3)c3ccoc23)ccn1 [TELATINIB]	–	0.3 (≈ 0.123 µg/mL)
O=C1NC(=O)C2(CCc3ccccc3C2)N1 (stereo not drawn) [TETRANTOIN]	–	224 (≈ 48.4 µg/mL)
O=C1CCC(N2C(=O)c3ccccc3C2=O)C(=O)N1 (stereo not drawn) [THALIDOMIDE]	–	155 (≈ 40 µg/mL)
O=C(Nc1ccccc1)Nc1cnns1 [THIDIAZURON]	–	178 (≈ 39.2 µg/mL)
Cc1c(Cc2ccc3ccccc3n2)c2cc(F)ccc2n1CC(=O)O [TIMAPIPRANT]	–	112 (≈ 39.1 µg/mL)
Cn1cncc1[C@@](N)(c1ccc(Cl)cc1)c1ccc2c(c1)c(-c1cccc(Cl)c1)cc(=O)n2C [TIPIFARNIB]	–	9.5 (≈ 4.65 µg/mL)
COc1cc2nccc(Oc3ccc(NC(=O)Nc4cc(C)on4)c(Cl)c3)c2cc1OC [TIVOZANIB]	–	9.3 (≈ 4.23 µg/mL)
O=C(CCCCCCC(=O)Nc1ccccc1)NO [VORINOSTAT]	–	1230 (≈ 325 µg/mL)
c1ccc2c(c1)Cc1ccccc1O2 [XANTHENE]	–	4.4 (≈ 0.802 µg/mL)
O=c1c2ccccc2oc2ccccc12 [XANTHONE]	–	20 (≈ 3.92 µg/mL)
